Values quoted from earlier work as cited in EP0527942B1, “COLONIC DRUG DELIVERY SYSTEM” (Perio Products Limited, priority 1990, dated 1991).

System: morphine-dependent rats
Conditions: for time to diarrhea, withdrawal behavior and tail skin temperature response: oral administration

Row | Compound | time to diarrhea, withdrawal behavior and tail skin temperature response [min] | time to diarrhea (direct colonic administration) [min] | activity when administered subcutaneously (subcutaneous administration)
1 | C=CCN1CC[C@]23c4c5ccc(O)c4O[C@H]2C(=O)CC[C@@]3(O)[C@H]1C5 [naloxone] | ≤ 15 |  | 
2 | nalmefene glucuronide |  | 5 to 8 | inactive
3 | C=C1CC[C@@]2(O)[C@H]3Cc4ccc(O)c5c4[C@@]2(CCN3CC2CC2)[C@H]1O5 [nalmefene] | ≤ 15 |  | 
